IC50 data for one molecule are collected here from BindingDB's records for doi:10.7270/Q20K275C (The Scripps Research Institute Molecular Screening Center, 2012).

In the assay the target is Arf-GAP with SH3 domain, ANK repeat and PH domain-containing protein 1 (Homo sapiens, UniProt Q9ULH1).
Sequence of Arf-GAP with SH3 domain, ANK repeat and PH domain-containing protein 1 (Q9ULH1 whole entry, the tested form may be a part): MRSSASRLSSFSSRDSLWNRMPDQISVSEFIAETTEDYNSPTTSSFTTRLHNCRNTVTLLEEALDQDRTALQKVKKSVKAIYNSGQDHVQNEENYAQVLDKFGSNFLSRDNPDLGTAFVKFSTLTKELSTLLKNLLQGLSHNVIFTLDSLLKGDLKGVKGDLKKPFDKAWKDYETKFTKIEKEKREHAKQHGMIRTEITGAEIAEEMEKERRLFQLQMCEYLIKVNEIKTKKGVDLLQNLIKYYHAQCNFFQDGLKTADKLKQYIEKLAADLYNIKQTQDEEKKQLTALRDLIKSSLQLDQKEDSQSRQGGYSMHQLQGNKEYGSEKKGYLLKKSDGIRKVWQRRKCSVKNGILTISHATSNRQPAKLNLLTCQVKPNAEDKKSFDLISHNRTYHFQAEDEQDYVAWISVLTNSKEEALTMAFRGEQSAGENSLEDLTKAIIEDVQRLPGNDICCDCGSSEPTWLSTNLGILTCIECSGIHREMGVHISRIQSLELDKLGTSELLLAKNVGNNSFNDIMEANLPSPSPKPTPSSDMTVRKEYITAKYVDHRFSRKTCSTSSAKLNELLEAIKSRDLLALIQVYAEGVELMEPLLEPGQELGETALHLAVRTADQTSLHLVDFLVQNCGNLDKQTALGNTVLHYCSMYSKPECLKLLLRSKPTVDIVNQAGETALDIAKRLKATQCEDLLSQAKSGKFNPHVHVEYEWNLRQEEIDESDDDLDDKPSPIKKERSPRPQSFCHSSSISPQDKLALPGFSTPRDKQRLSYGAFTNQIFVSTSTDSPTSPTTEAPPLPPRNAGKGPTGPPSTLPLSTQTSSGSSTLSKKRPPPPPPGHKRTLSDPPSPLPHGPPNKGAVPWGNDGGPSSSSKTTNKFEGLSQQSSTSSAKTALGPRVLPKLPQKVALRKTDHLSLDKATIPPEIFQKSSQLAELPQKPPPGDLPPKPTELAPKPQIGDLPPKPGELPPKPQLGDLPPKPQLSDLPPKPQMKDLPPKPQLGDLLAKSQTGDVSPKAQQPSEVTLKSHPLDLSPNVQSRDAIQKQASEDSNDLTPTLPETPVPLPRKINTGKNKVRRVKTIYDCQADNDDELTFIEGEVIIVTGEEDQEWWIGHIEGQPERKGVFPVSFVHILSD

For the molecule `O=C(Nc1cccc(-c2csc(Nc3ccc(Cl)cc3)n2)c1)c1ccccc1`, the IC50 is more than 165 µM.

A word on the IC50: it is the concentration needed to halve the response being measured. Read a high IC50 as lower potency.
